Experimental data as given in ChEMBL document CHEMBL3769391, “Identification of a new cyathane diterpene that induces mitochondrial and autophagy-dependent apoptosis and shows a potent in vivo anti-colorectal cancer activity” (Eur J Med Chem, 2016).
Calls of active or inactive are those of the source. The rule behind the calls is not given here.

How the values were obtained:
HCT-116 [1] = assay: Induction of apoptosis in Bax deficient human HCT116 cells after 24 hrs by Annexin V-FITC/propidium iodide staining based flow cytometry; format: functional, cell-based
HCT-116 [2] = assay: Induction of Bcl-2 expression in human HCT116 cells at 5 uM after 4 to 12 hrs by qRT-PCR method; format: functional, cell-based
HCT-116 [3] = assay: Induction of apoptosis in human HCT116 cells assessed as increase in ATG5 expression at 5 uM after 4 to 12 hrs by Western blot analysis; format: functional, cell-based
HCT-116 [4] = assay: Induction of autophagy in human HCT116 cells assessed as ATG5-ATG12 complex at 5 uM after 4 to 12 hrs by Western blot analysis; format: functional, cell-based
[5] = Cytotoxicity against Bax deficient human HCT116 cells assessed as reduction in cell viability after 24 hrs by MTT assay; format: functional, cell-based; conditions: HCT-116, 24 h
HCT-116 [6] = assay: Induction of apoptosis in human HCT116 cells assessed as necrotic cells at 5 uM after 24 hrs by Annexin V-FITC/propidium iodide staining based flow cytometry in presence of DTT (reference value: 0.44%); format: functional
HCT-116 [7] = assay: Induction of apoptosis in human HCT116 cells assessed as late apoptotic cells at 5 uM after 24 hrs by Annexin V-FITC/propidium iodide staining based flow cytometry (reference value: 3.73 to 4.54%); format: functional
Mus musculus [8] = assay: Toxicity in immune deficient nude BALB/c mouse xenografted with human HCT116 cells assessed as changes in body weight at 5 and 10 mg/kg, ip administered every other day for 2 weeks measured during compound dosing; format: organism-based, HCT-116; conditions: in vivo, 336 h
Mus musculus [9] = assay: Hepatotoxicity in immune deficient nude BALB/c mouse xenografted with human HCT116 cells assessed as changes in albumin level in serum at 5 and 10 mg/kg, ip administered every other day for 2 weeks measured during compound dosing; format: toxicity, organism-based, HCT-116; conditions: in vivo, 336 h
HCT-116 [10] = assay: Induction of apoptosis in human HCT116 cells assessed as PARP cleavage at 5 uM after 6 to 24 hrs by Western blot analysis; format: functional, cell-based
HCT-116 [11] = assay: Induction of apoptosis in human HCT116 cells assessed as viable cells at 5 uM after 24 hrs by Annexin V-FITC/propidium iodide staining based flow cytometry in presence of NAC (reference value: 93.64%); format: functional; conditions: HCT-116, 24 h, read-out: Activity
HCT-116 [12] = assay: Induction of apoptosis in human HCT116 cells assessed as apoptotic cells at 5 uM after 24 hrs by Annexin V-FITC/propidium iodide staining based flow cytometry in presence of caspase inhibitor Z-VAD-FMK; format: functional
HCT-116 [13] = assay: Induction of apoptosis in Bax deficient human HCT116 cells assessed as late apoptotic cells at 15 uM after 24 hrs by Annexin V-FITC/propidium iodide staining based flow cytometry (reference value: 1.5 to 1.56%); format: functional
HCT-116 [14] = assay: Induction of apoptosis in Bax deficient human HCT116 cells assessed as early apoptotic cells at 15 uM after 24 hrs by Annexin V-FITC/propidium iodide staining based flow cytometry (reference value: 0.85 to 1.13%); format: functional
[15] = Antitumor activity against human HCT116 cells xenografted in immune deficient nude BALB/c mouse assessed as tumor growth inhibition at 10 mg/kg, ip administered every other day for 2 weeks measured after 2 weeks post last dose relative to control; format: functional; conditions: HCT-116, ip, 336 h, read-out: TGI
[16] = Antitumor activity against human HCT116 cells xenografted in immune deficient nude BALB/c mouse assessed as tumor growth inhibition at 5 mg/kg, ip administered every other day for 2 weeks measured after 2 weeks post last dose relative to control; format: functional; conditions: HCT-116, ip, 336 h, read-out: TGI
HCT-116 [17] = assay: Induction of apoptosis in human HCT116 cells assessed as cytochrome C release from mitochondria to cytoplasm at 5 uM after 12 hrs by immunofluorescence assay; format: functional
HCT-116 [18] = assay: Induction of apoptosis in Bax deficient human HCT116 cells assessed as late apoptotic cells at 20 uM after 24 hrs by Annexin V-FITC/propidium iodide staining based flow cytometry (reference value: 1.5%); format: functional
[19] = Cytotoxicity against human HCT116 cells assessed as reduction in cell viability after 24 hrs by MTT assay; format: functional, cell-based; conditions: HCT-116, 24 h
HCT-116 [20] = assay: Induction of apoptosis in human HCT116 cells assessed as early apoptotic cells at 5 uM after 24 hrs by Annexin V-FITC/propidium iodide staining based flow cytometry in presence of DTT (reference value: 2.2%); format: functional
HCT-116 [21] = assay: Induction of apoptosis in Bax deficient human HCT116 cells assessed as late apoptotic cells at 5 uM after 24 hrs by Annexin V-FITC/propidium iodide staining based flow cytometry (reference value: 1.5%); format: functional
HCT-116 [22] = assay: Induction of apoptosis in human HCT116 cells assessed as changes in Bcl-X(L) expression at 5 uM after 6 to 24 hrs by Western blot analysis; format: functional, cell-based
Mus musculus [23] = assay: Toxicity in immune deficient nude BALB/c mouse xenografted with Bax deficient human HCT116 cells assessed as changes in body weight at 5 and 10 mg/kg, ip administered every other day for 2 weeks measured during compound dosing; format: organism-based, HCT-116; conditions: in vivo, 336 h
HCT-116 [24] = assay: Induction of apoptosis in human HCT116 cells assessed as early apoptotic cells at 5 uM after 24 hrs by Annexin V-FITC/propidium iodide staining based flow cytometry (reference value: 1.06 to 2.2%); format: functional
HCT-116 [25] = assay: Induction of apoptosis in human HCT116 cells assessed as caspase activation at 5 uM by CaspACEFITC-VAD-FMK staining based flow cytometry; format: functional, cell-based; conditions: TDE = time-dependent effect
HCT-116 [26] = assay: Induction of apoptosis in human HCT116 cells assessed as early apoptotic cells at 2.5 uM after 24 hrs by Annexin V-FITC/propidium iodide staining based flow cytometry (reference value: 1.06%); format: functional
HCT-116 [27] = assay: Induction of apoptosis in human HCT116 cells assessed as necrotic cells at 5 uM after 24 hrs by Annexin V-FITC/propidium iodide staining based flow cytometry (reference value: 0.44%); format: functional
HCT-116 [28] = assay: Induction of apoptosis in human HCT116 cells assessed as necrotic cells at 5 uM after 24 hrs by Annexin V-FITC/propidium iodide staining based flow cytometry in presence of NAC (reference value: 0.44%); format: functional
HCT-116 [29] = assay: Induction of apoptosis in human HCT116 cells assessed as decrease in Bcl-2 expression at 5 uM after 6 to 24 hrs by Western blot analysis; format: functional, cell-based
HCT-116 [30] = assay: Induction of apoptosis in Bax deficient human HCT116 cells assessed as early apoptotic cells at 15 uM after 24 hrs by Annexin V-FITC/propidium iodide staining based flow cytometry in presence of NAC (reference value: 0.85%); format: functional
HCT-116 [31] = assay: Induction of apoptosis in human HCT116 cells assessed as increase in BimS expression at 5 uM after 6 to 24 hrs by Western blot analysis; format: functional, cell-based
HCT-116 [32] = assay: Induction of apoptosis in human HCT116 cells assessed as ATG5 cleavage by Western blot analysis in presence of Z-VAD-FMK; format: functional, cell-based
Mus musculus [33] = assay: Hepatotoxicity in immune deficient nude BALB/c mouse xenografted with Bax deficient human HCT116 cells assessed as changes in albumin level in serum at 5 and 10 mg/kg, ip administered every other day for 2 weeks measured during compound dosing; format: toxicity, organism-based, HCT-116; conditions: in vivo, 336 h

Structure (SMILES): CO[C@@H]1C(C=O)=CC[C@@H]2C3=C(C(C)C)CC[C@]3(C)CC[C@@]2(C)[C@H]1O
- Activity (HCT-116 [1]): Dose-dependent effect
- Activity (HCT-116 [2]): Active
- Activity (HCT-116 [3]): Active
- Activity (HCT-116 [4]): Active
- IC50 [5]: 24.2 µM
- Activity (HCT-116 [6]): 0.33%
- Activity (HCT-116 [7]): 13.06%
- Activity (Mus musculus [8]): Non-toxic
- Activity (Mus musculus [9]): Non-toxic
- Activity (HCT-116 [10]): Active
- viability at 5 µM (HCT-116 [11]): 91.4%
- Activity (HCT-116 [12]): 28.81%
- Activity (HCT-116 [13]): 29.02%
- Activity (HCT-116 [14]): 47.04%
- inhibition in vivo at 10 mg/kg [15]: 62.2%
- inhibition in vivo at 5 mg/kg [16]: 26%
- Activity (HCT-116 [17]): Active
- Activity (HCT-116 [18]): 32.25%
- IC50 [19]: 9.16 µM
- Activity (HCT-116 [20]): 5.58%
- Activity (HCT-116 [21]): 4.14%
- Activity (HCT-116 [22]): inactive
- Activity (Mus musculus [23]): Non-toxic
- Activity (HCT-116 [24]): 24.72%
- Activity (HCT-116 [25]): tde
- Activity (HCT-116 [26]): 2.23%
- Activity (HCT-116 [27]): 5.93%
- Activity (HCT-116 [28]): 0.81%
- Activity (HCT-116 [29]): Active
- Activity (HCT-116 [30]): 1.42%
- Activity (HCT-116 [31]): Active
- Activity (HCT-116 [32]): inactive
- Activity (Mus musculus [33]): Non-toxic
